Laboratory results: ChEMBL document CHEMBL1201862, “PubChem BioAssay data set” (2004)
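All cell lines were grown in 96-well plates and treated with compound for 48 hours. GI50: concentration for 50% inhibition of growth.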 Activity calls are given as the source filed them. No stated cut-off is given here; in the data, active = GI50 up to about 1.1 µM and inactive = higher.

Tests used:
Assay in all cases: inhibition of tumour cell growth, NCI panel, 48 h
[1] = test system: IGROV-1
[2] = test system: LXFL 529
[3] = test system: UACC-62
[4] = test system: A549
[5] = test system: DMS-114
[6] = test system: ACHN
[7] = test system: RPMI-8226
[8] = test system: EKVX
[9] = test system: M14
[10] = test system: OVCAR-8
[11] = test system: HL-60
[12] = test system: CCRF-CEM
[13] = test system: U-251
[14] = test system: SK-MEL-2
[15] = test system: A498
[16] = test system: OVCAR-4
[17] = test system: OVCAR-5
[18] = test system: SR
[19] = test system: SN12C
[20] = test system: SNB-78
[21] = test system: SNB-75
[22] = test system: NCI-H522
[23] = test system: KM12
[24] = test system: HOP-92
[25] = test system: DMS-273
[26] = test system: SW-620
[27] = test system: M19-MEL
[28] = test system: LOX IMVI
[29] = test system: KM-20L2
[30] = test system: Malme-3M
[31] = test system: SNB-19
[32] = test system: HCT-15
[33] = test system: SK-OV-3
[34] = test system: SK-MEL-5
[35] = test system: TK-10
[36] = test system: MOLT-4
[37] = test system: HCC 2998
[38] = test system: HT-29
[39] = test system: NCI-H460
[40] = test system: HOP-62
[41] = test system: SK-MEL-28
[42] = test system: SF-539
[43] = test system: K562
[44] = test system: SF-295
[45] = test system: DLD-1
[46] = test system: SF-268
[47] = test system: 786-0
[48] = test system: COLO 205
[49] = test system: UO-31
[50] = test system: CAKI-1
[51] = test system: UACC-257
[52] = test system: NCI-H226
[53] = test system: OVCAR-3
[54] = test system: HCT-116
[55] = test system: RXF 393
[56] = test system: NCI-H23
[57] = test system: MDA-MB-231
[58] = test system: T47D
[59] = test system: MDA-N
[60] = test system: MCF7
[61] = test system: MDA-MB-435
[62] = test system: NCI/ADR-RES
[63] = test system: PC-3
[64] = test system: Hs-578T
[65] = test system: DU-145
[66] = test system: BT-549

With COc1cc2cc3c4c(cc(OC)c(OC)c4c2cc1OC)CCN3C(=O)N(C)C the GI50 [1] was > 100 µM (inactive), the GI50 [2] was 77.4 µM (inactive) and the GI50 [3] was > 100 µM (inactive). The GI50 [4] was > 100 µM (inactive), the GI50 [5] was > 100 µM (inactive) and the GI50 [6] was 75.5 µM (inactive). The GI50 [7] was 82.6 µM (inactive), the GI50 [8] was > 100 µM (inactive) and the GI50 [9] was > 10 µM (inactive). The GI50 [10] was > 100 µM (inactive), the GI50 [11] was > 100 µM (inactive) and the GI50 [12] was 96.6 µM (inactive). For the same compound, the GI50 [13] was > 100 µM (inactive), the GI50 [14] was > 100 µM (inactive) and the GI50 [15] was 97.3 µM (inactive). The GI50 [16] was 89.5 µM (inactive), the GI50 [17] was > 100 µM (inactive) and the GI50 [18] was > 100 µM (inactive). For the same compound, the GI50 [19] was > 100 µM (inactive), the GI50 [20] was > 100 µM (inactive) and the GI50 [21] was 19.5 µM (inactive). For the same compound, the GI50 [22] was 29.9 µM (inactive), the GI50 [23] was > 100 µM (inactive) and the GI50 [24] was 91 µM (inactive). The GI50 [25] was 89.1 µM (inactive), the GI50 [26] was > 100 µM (inactive) and the GI50 [27] was > 100 µM (inactive). The GI50 [28] was > 100 µM (inactive), the GI50 [29] was 58.2 µM (inactive) and the GI50 [30] was 59.3 µM (inactive). The GI50 [31] was > 100 µM (inactive), the GI50 [32] was greater than 100 µM and the GI50 [33] was > 100 µM (inactive). For the same compound, the GI50 [34] was > 100 µM (inactive), the GI50 [35] was > 10 µM (inactive) and the GI50 [36] was > 100 µM (inactive). The GI50 [37] was > 100 µM (inactive), the GI50 [38] was 83.4 µM (inactive) and the GI50 [39] was 87.7 µM (inactive). For the same compound, the GI50 [40] was 72.1 µM (inactive), the GI50 [41] was 27.9 µM (inactive) and the GI50 [42] was 34.5 µM (inactive). For the same compound, the GI50 [43] was > 100 µM (inactive), the GI50 [44] was 37.8 µM (inactive) and the GI50 [45] was > 100 µM (inactive). The GI50 [46] was > 100 µM (inactive), the GI50 [47] was 44.5 µM (inactive) and the GI50 [48] was > 100 µM (inactive). The GI50 [49] was > 100 µM (inactive), the GI50 [50] was 34.8 µM (inactive) and the GI50 [51] was > 100 µM (inactive). The GI50 [52] was 56.2 µM (inactive), the GI50 [53] was > 100 µM (inactive) and the GI50 [54] was > 100 µM (inactive). The GI50 [55] was > 100 µM (inactive) and the GI50 [56] was > 10 µM (inactive).
With CC(C)OC(=O)c1ccc(NCC2=CC(=O)C=CC2=O)cc1 the GI50 [1] was 13.5 µM (inactive), the GI50 [3] was 15.3 µM (inactive) and the GI50 [4] was 44.3 µM (inactive). For the same compound, the GI50 [6] was 12 µM (inactive), the GI50 [7] was 2.54 µM (inactive) and the GI50 [8] was 17.3 µM (inactive). The GI50 [9] was 14.5 µM (inactive), the GI50 [10] was 15.3 µM (inactive) and the GI50 [57] was 10.2 µM (inactive). The GI50 [11] was 2.2 µM (inactive), the GI50 [12] was 2.21 µM (inactive) and the GI50 [13] was 16 µM (inactive). For the same compound, the GI50 [14] was 17 µM (inactive), the GI50 [15] was 27.2 µM (inactive) and the GI50 [16] was 12.8 µM (inactive). The GI50 [17] was 19.4 µM (inactive), the GI50 [18] was 2.39 µM (inactive) and the GI50 [19] was 12.9 µM (inactive). The GI50 [21] was 18.5 µM (inactive), the GI50 [22] was 1.69 µM (inactive) and the GI50 [23] was 16.6 µM (inactive). The GI50 [58] was 2.25 µM (inactive), the GI50 [59] was 15.1 µM (inactive) and the GI50 [24] was 2.48 µM (inactive). For the same compound, the GI50 [26] was 11.7 µM (inactive), the GI50 [28] was 12.8 µM (inactive) and the GI50 [30] was 8.97 µM (inactive). The GI50 [31] was 29.4 µM (inactive), the GI50 [32] was 12.7 µM and the GI50 [33] was 42 µM (inactive). For the same compound, the GI50 [34] was 17.4 µM (inactive), the GI50 [35] was 15.3 µM (inactive) and the GI50 [36] was 2.39 µM (inactive). For the same compound, the GI50 [37] was 21.4 µM (inactive), the GI50 [38] was 16.4 µM (inactive) and the GI50 [39] was 36.3 µM (inactive). For the same compound, the GI50 [40] was > 95.5 µM (inactive), the GI50 [41] was 18.3 µM (inactive) and the GI50 [42] was 7.45 µM (inactive). The GI50 [60] was 12.4 µM (inactive), the GI50 [61] was 13.6 µM (inactive) and the GI50 [62] was 13.5 µM (inactive). For the same compound, the GI50 [43] was 2.35 µM (inactive), the GI50 [44] was 28.2 µM (inactive) and the GI50 [63] was 13.1 µM (inactive). For the same compound, the GI50 [46] was 12.3 µM (inactive), the GI50 [47] was 13 µM (inactive) and the GI50 [48] was 3.8 µM (inactive). For the same compound, the GI50 [49] was 9.91 µM (inactive), the GI50 [50] was 3.43 µM (inactive) and the GI50 [64] was 18.3 µM (inactive). The GI50 [65] was 16.6 µM (inactive), the GI50 [51] was 14.1 µM (inactive) and the GI50 [52] was 30 µM (inactive). For the same compound, the GI50 [53] was 6.19 µM (inactive), the GI50 [54] was 14.4 µM (inactive) and the GI50 [55] was 12.8 µM (inactive). For the same compound, the GI50 [56] was 13.6 µM (inactive) and the GI50 [66] was 12.9 µM (inactive).
